Results on 17 compounds are retold here after ChEMBL document CHEMBL1132857, “Synthesis and binding studies of some epibatidine analogues” (Bioorg Med Chem Lett, 2000).

The IC50 is the point on the concentration scale where inhibition reaches its midpoint. Low readings indicate greater potency in that assay, high ones weaker potency in that assay.

Assay [1] concerns the target T1, Muscarinic acetylcholine receptor M1 (Rattus norvegicus) (UniProt P08482).
T1 sequence (whole entry): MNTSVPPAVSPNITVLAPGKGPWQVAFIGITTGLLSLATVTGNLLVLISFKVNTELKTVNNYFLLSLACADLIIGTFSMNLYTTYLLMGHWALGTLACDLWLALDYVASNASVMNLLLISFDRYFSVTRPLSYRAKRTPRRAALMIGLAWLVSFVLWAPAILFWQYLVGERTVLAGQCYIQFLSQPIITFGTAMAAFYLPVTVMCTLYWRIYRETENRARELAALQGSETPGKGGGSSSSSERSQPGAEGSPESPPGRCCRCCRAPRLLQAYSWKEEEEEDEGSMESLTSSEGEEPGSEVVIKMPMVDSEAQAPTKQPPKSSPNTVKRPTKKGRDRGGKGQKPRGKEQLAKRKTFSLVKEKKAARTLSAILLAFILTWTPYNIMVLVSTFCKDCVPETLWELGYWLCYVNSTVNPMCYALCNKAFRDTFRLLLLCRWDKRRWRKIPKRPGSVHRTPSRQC
The assay can be described thus: Inhibition of binding of [3H]quinuclidinyl benzilate to Muscarinic acetylcholine receptor M1 in rat brain cortex at 10e-5 M of compound concentration; Less active. The format is tissue-based.

Assay [2] deals with T2, 5-hydroxytryptamine receptor 1A (Rattus norvegicus) (UniProt P19327).
T2 sequence (whole entry): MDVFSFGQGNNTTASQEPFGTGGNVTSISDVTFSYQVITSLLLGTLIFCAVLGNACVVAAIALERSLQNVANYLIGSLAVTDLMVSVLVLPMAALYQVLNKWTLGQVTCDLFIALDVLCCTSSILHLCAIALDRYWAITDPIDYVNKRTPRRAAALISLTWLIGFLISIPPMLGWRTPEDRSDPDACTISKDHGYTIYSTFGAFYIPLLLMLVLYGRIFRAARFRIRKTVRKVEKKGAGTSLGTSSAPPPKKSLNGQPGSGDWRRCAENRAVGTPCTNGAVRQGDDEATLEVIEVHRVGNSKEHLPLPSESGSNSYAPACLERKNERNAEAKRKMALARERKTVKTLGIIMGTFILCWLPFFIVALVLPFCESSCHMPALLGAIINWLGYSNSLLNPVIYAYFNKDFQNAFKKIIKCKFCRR
The assay can be described thus: Inhibition of [3H]8-hydroxy-2-dipropylamino-1,2,3,4-tetrahydronaphthalene binding to 5-hydroxytryptamine 1A receptor in hippocampus region of rat brain; Less active. The format is tissue-based.

Assay [3] has as its target 5-hydroxytryptamine receptor 1B (Rattus norvegicus) (UniProt P28564). In words: Inhibition of [3H]5-HT binding to 5-hydroxytryptamine 1B receptor in rat striatum; Less active. Type of assay: tissue-based.
The target in assay [4] is T3, Muscarinic acetylcholine receptor M2 (Rattus norvegicus) (UniProt P10980).
T3 sequence (whole entry): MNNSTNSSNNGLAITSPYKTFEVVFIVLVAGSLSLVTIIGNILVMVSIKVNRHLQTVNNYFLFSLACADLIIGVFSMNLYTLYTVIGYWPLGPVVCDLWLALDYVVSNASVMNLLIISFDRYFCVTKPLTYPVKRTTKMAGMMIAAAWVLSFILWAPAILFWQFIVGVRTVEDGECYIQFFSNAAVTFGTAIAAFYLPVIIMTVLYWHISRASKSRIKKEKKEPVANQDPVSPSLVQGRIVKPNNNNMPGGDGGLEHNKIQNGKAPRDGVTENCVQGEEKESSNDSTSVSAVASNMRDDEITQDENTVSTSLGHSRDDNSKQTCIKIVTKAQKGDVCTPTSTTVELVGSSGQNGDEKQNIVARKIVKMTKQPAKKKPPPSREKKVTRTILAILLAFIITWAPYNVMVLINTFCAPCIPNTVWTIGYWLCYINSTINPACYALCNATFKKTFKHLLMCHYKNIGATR
The assay can be described thus: Inhibition of binding of [3H]quinuclidinyl benzilate to Muscarinic acetylcholine receptor M2 in rat heart atria at 10e-5 M of compound concentration; Less active.

For assay [5], the species on record is Rattus norvegicus. The assay can be described thus: Inhibition of binding of [3H]nicotine to neural nicotinic cholinergic receptor in rat brain membranes at 10e-5 M of compound concentration; Less active. Type of assay: cell membranes.
The species entered for assay [6] is Rattus norvegicus. In words: Inhibition of binding of [3H]-nicotine to neural nicotinic cholinergic receptor in rat brain membranes at 10e-5 M of compound concentration; Less active. The format is cell membranes.
Assay [7] deals with T4, Muscarinic acetylcholine receptor M1 (Rattus norvegicus, UniProt P08482).
T4 sequence (P08482 whole entry): T1 sequence (whole entry)
In words: Inhibition of binding of [3H]quinuclidinyl benzilate to Muscarinic acetylcholine receptor M1 in rat brain cortex at 10e-5 M of compound concentration. The format is tissue-based.

Assay [8] deals with T5, Muscarinic acetylcholine receptor M2 (Rattus norvegicus, UniProt P10980).
T5 sequence (P10980 whole entry): T3 sequence (whole entry)

Assay [9] is described as follows: Inhibition of binding of [3H]nicotine to neural nicotinic cholinergic receptor in rat brain membranes at 10e-5 M of compound concentration. The format is cell membranes.
Assay [10] deals with T4, Muscarinic acetylcholine receptor M1. In words: Inhibition of binding of [3H]quinuclidinyl benzilate to Muscarinic acetylcholine receptor M1 in rat brain cortex at 10e-5 M of compound concentration; Residual radioligand binding higher than 80%. The format is tissue-based.
For assay [11], the target named is T5, Muscarinic acetylcholine receptor M2. In words: Inhibition of binding of [3H]quinuclidinyl benzilate to Muscarinic acetylcholine receptor M2 in rat heart atria at 10e-5 M of compound concentration.
For assay [12], the target named is T4, Muscarinic acetylcholine receptor M1. Type of assay: tissue-based, Brain.
Assay [13] addresses T3, Muscarinic acetylcholine receptor M2 (Rattus norvegicus). In words: Inhibition of binding of [3H]quinuclidinyl benzilate to Muscarinic acetylcholine receptor M2 in rat heart atria at 10e-5 M of compound concentration. Less active.

5-hydroxytryptamine receptor 1B (Rattus norvegicus), sequence (P28564 whole entry): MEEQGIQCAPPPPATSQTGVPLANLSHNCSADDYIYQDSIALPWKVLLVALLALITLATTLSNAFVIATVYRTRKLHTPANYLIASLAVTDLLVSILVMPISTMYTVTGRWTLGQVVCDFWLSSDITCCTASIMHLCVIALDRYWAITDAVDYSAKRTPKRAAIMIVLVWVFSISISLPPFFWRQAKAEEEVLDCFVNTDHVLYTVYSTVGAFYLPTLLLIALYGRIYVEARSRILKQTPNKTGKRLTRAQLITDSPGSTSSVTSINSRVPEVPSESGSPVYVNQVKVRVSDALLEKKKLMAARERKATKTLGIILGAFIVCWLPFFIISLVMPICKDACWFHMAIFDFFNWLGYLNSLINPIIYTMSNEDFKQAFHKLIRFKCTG

For `CCOC(=O)N1C2CCC1CC(O)(c1cccc(Cl)n1)C2` (stereo unspecified), the Activity entry in [1], in [2], in assay [3], in assay [4] and in assay [5] was “Weak activity” in each case.

On to `CCOC(=O)OC1(c2ccc(Cl)nc2)CCN(C)CC1`, for which the Activity entry in [1], in assay [2], in [3], in [4] and in assay [6] was “Weak activity” throughout.

On to `CN1C2C=C(c3cccc(Cl)n3)CC1CC2.O=C(O)/C=C\C(=O)O` (stereo unspecified), for which the 50% inhibitory concentration (IC50) is 1.85 µM in assay [7], “Not Active” in assay [8] and 0.264 µM in [9].

Take `CN1C2CCC1CC(O)(c1ccc(Cl)nc1)C2` (stereo unspecified): the Activity entry in assay [1], in assay [2], in [3], in assay [4] and in assay [6] was “Weak activity” throughout.

Consider `Cl.Clc1cccc(C2=CC3CCC(C2)N3)n1` (stereo unspecified), for which the IC50 entry in assay [8] is “Not Active”; in assay [9], 0.212 µM; in assay [10] it was “Not Active”.

In the case of `CN1CCC(O)(c2ccc(Cl)nc2)CC1`, the Activity entry in assay [1], in [2], in assay [3], in assay [4] and in [6] was “Weak activity” in each case.

With `CN1C2C=C(c3ccc(Cl)nc3)CC1CC2` (stereo unspecified), the IC50 in assay [7] was 2.14 µM; in assay [9], 0.0018 µM; in assay [11], 4.18 µM.

For the compound `Clc1ccc(C2=CC3CCC(C2)N3)cn1.O=C(O)/C=C\C(=O)O` (stereo unspecified), the IC50 result is “Not Active” in [8], 0.0017 µM in assay [9] and “Not Active” in assay [10].

As for `C[n+]1cccc(-c2ccc(Cl)nc2)c1.[I-]`, the IC50 entry in [12] was “Not Active”; in assay [8] it was “Not Active”; in assay [9], 0.077 µM.

Consider `CN1C2CCC1CC(O)(c1cccc(Cl)n1)C2` (stereo unspecified), for which the Activity result in assay [1], in assay [2], in assay [3], in [4] and in assay [6] was “Weak activity” in each case.

With `CN1CC=C(c2ccc(Cl)nc2)CC1.Cl`, the concentration for half-maximal inhibition (IC50) entry in assay [12] is “Not Active”; in assay [8], “Not Active”; in assay [9] it was 0.0125 µM.

In the case of `Clc1ccc(-c2cccnc2)cn1`, the Activity result in [1], in assay [2], in assay [3], in [4] and in assay [5] was “Weak activity” each time.

On to `CN1C2C=C(c3ccc(Cl)cn3)CC1CC2` (stereo unspecified), for which the Activity entry in assay [1], in assay [2], in [3], in [4] and in assay [6] was “Weak activity” throughout.

On to `CCOC(=O)N1C2CCC1CC(O)(c1ccc(Cl)nc1)C2` (stereo unspecified), for which the Activity entry in assay [1], in assay [2], in [3], in assay [4] and in [6] was “Weak activity” in each case.

For `CN1CCC=C(c2ccc(Cl)nc2)C1.O=C(O)/C=C\C(=O)O`, the IC50 result in assay [12] is “Not Active”; in [9], 0.0022 µM; in [11] it was 3.51 µM.

Regarding `CCOC(=O)N1C2CCC1CC(O)(c1ccc(Cl)cn1)C2` (stereo unspecified), the Activity entry in assay [1], in assay [2], in assay [3], in assay [4] and in [5] was “Weak activity” each time.

Turning to `CN1C2CCC1CC(O)(c1ccc(Cl)cn1)C2` (stereo unspecified), the Activity entry in assay [1], in assay [13], in [2], in [3] and in assay [5] was “Weak activity” throughout.
